Experimental findings from ChEMBL document CHEMBL1131655 (Bioorg Med Chem Lett, 1998) are described below.

For orientation: EC50 means the concentration giving half of the maximal effect. Broadly, the Ki is a measure of affinity in units of concentration, obtained from inhibition or displacement. The low end stands for higher affinity, the high end for lower affinity. In general, Emax refers to the maximal effect, on the per cent scale that the assay sets.

Molecules are shown by their SMILES.

The target in assay [1] is T1, Adenosine receptor A1 (Homo sapiens, UniProt P30542).
T1 sequence (P30542 whole entry): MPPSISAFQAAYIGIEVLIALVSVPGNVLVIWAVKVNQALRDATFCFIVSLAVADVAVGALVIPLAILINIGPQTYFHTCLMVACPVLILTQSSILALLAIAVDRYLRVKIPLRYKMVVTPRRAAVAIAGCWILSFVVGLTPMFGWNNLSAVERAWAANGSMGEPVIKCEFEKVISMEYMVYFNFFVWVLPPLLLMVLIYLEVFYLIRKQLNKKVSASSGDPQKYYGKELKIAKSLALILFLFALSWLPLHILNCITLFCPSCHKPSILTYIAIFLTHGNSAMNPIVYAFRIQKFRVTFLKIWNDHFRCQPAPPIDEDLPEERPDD
Put plainly: Binding against Human Adenosine A1 receptor.

In assay [2] the target is T2, Adenosine receptor A1 (Homo sapiens) (UniProt P30542).
T2 sequence (whole entry): T1 sequence (P30542 whole entry)
Put plainly: Percentage extracellular acidification rate was evaluated against human adenosine A1 receptor expressed in CHO-K1 cells. The class given is functional, cell-based.

Assay [3] concerns the target T3, Adenosine receptor A1 (Rattus norvegicus, UniProt P25099).
T3 sequence (P25099 whole entry): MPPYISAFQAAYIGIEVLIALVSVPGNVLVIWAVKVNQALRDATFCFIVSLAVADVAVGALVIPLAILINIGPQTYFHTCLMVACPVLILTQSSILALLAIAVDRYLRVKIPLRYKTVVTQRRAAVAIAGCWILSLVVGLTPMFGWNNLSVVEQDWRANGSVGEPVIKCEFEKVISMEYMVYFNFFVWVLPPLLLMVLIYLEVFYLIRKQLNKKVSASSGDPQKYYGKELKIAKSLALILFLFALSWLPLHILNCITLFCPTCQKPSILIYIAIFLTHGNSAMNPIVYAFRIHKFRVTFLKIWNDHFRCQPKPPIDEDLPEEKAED
Put plainly: Binding affinity against adenosine A1 receptor in rat brain using [3H]R-PIA. The class given is tissue-based.

The target in assay [4] is T2, Adenosine receptor A1 (Homo sapiens). Put plainly: Emax for R-PIA against Human Adenosine A1 receptor.

On to `NC1=Nc2c(ncn2C2O[C@@H](CO)[C@H](O)[C@@H]2O)C2=N[C@H](c3ccccc3)CN12` (stereo partly drawn), for which, in assay [1], a half-maximal effect (EC50) was put at 100000 nM. Besides, the ECAR in assay [2] turned out to be 122%. Besides, the Ki in assay [3] is 1020 nM. The compound further gave an Emax in assay [4] of 90%.

In turn, `NC1=Nc2c(ncn2C2O[C@@H](CO)[C@H](O)[C@@H]2O)C2=N[C@@H](c3ccccc3)CN12` (stereo partly drawn) came in with an ECAR in assay [2] of 117%. In assay [3], the affinity, expressed as Ki, was 610 nM.

`OC[C@@H]1OC(n2cnc3c2N=CN2C[C@H](c4ccccc4)N=C32)[C@@H](O)[C@H]1O` (stereo partly drawn): the ECAR in assay [2] is 106%.

For `OC[C@@H]1OC(n2cnc3c2N=CN2C[C@@H](c4ccccc4)N=C32)[C@@H](O)[C@H]1O` (stereo partly drawn), in assay [2], the ECAR came out at 113%.
